For one assay, the system named is pS6 MDA-MB-468. Description: Cellular Activity Assay (phospho-S6 in MDA-MB-468 cells). It is filed as cell-based. Particulars: Homo sapiens, 2 hr compound incubation, percent pS6-positive cells. In short, it runs like this:
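MDA-MB-468 cells treated with compound for 2 hr, fixed, then immunostained for phospho-S6 with propidium iodide counterstain. Green (pS6) and red (total) cells counted by laser-scanning cytometry; IC50 derived from percent pS6-positive cells versus compound concentration.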

For another assay, the target named is T1, Akt1 (Homo sapiens, UniProt P31749).
T1 construct: 0.1 ng/ul His-AKT (Full Length), (Invitrogen, Part #P2999, Lot #641228C); His; purchased Invitrogen P2999
T1 sequence (P31749 whole entry): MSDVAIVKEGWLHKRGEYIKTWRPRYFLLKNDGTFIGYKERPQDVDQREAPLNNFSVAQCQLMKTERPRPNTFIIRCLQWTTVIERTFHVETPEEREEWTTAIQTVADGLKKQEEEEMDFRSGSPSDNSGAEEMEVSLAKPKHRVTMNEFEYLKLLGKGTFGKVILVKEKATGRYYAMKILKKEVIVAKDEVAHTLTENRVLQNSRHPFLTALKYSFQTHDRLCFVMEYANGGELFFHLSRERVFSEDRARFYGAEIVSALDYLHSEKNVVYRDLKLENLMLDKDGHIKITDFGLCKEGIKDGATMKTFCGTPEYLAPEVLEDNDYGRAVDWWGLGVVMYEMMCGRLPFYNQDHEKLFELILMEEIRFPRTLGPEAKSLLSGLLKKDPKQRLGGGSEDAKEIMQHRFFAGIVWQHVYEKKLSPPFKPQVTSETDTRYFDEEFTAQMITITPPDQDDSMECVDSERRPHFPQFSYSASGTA
Description: AKT/PKB Kinase Assay. Conditions: His-AKT (Full Length), 160 uM ATP, 90 min at 25 C. It is filed as biochemical. In short, it runs like this: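 Full-length His-tagged human AKT1 (0.1 ng/ul) with 1 uM FITC-labelled GRPRTSSFAEG peptide, 160 uM ATP, 1 mM MgCl2, 1 mM DTT in 100 mM HEPES pH 7.5, 90 min at 25 C, EDTA stop. Substrate/product peptides separated by off-chip mobility shift; IC50 fitted from % conversion dose-response.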

Another assay concerns the target T2, P70S6K (T412E mutant) (Homo sapiens, UniProt P23443, T412E).
T2 construct: purchased Millipore
The assay is described as follows: p70S6K Enzyme Assay. Particulars: 24 μM ATP, 90 min at 25° C., Caliper mobility shift. It is filed as biochemical. A digest of the protocol:
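Mobile-shift assay: 3 nM P70S6K T412E with 24 μM ATP and 1 μM FITC-labelled S6-derived peptide in Hepes pH 7.5, MgCl2, DTT, Brij; 90 min at 25 °C, stopped with EDTA. Substrate/phosphopeptide ratio separated electrophoretically on Caliper LabChip; IC50 determined.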

In another assay the target is T3, Aurora B (Homo sapiens, UniProt Q96GD4).
T3 construct: GST-Aurora B (1-344 amino acids); GST (N); purchased Carna Biosciences 05-102
T3 sequence (Q96GD4 whole entry, the tested form may be a part): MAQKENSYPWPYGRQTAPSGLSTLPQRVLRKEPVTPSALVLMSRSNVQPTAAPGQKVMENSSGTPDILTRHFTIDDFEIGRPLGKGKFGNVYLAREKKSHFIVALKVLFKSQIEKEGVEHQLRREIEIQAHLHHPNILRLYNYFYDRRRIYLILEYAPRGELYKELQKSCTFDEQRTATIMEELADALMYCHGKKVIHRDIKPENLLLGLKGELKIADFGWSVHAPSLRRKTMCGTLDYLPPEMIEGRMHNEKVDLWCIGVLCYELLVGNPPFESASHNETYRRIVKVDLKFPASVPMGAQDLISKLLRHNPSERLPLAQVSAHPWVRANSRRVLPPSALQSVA
T3 sequence (Q9NQS7 803-918 partner limits assumed): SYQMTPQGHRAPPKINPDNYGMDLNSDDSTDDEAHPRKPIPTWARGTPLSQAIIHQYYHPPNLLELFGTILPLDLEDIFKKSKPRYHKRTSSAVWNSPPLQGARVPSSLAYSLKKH
Description: Aurora B Kinase Assay. It is filed as biochemical. Particulars: GST-Aurora B (1-344), 10 uM ATP, 90 min at 25 C. In short, it runs like this:
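GST-Aurora B (aa 1-344, with His-INCENP) at 0.1 ng/ul, 10 uM ATP and 1 uM FITC-LRRASLG peptide in HEPES pH 7.5 with MgCl2 and DTT, 90 min at 25 C, stopped with EDTA. Substrate-to-product conversion read by off-chip mobility shift; IC50 from sigmoidal dose-response fit.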

For orientation: IC50 means the concentration that inhibits the measured activity by half.

T2 sequence (P23443 1-421 T412E limits assumed): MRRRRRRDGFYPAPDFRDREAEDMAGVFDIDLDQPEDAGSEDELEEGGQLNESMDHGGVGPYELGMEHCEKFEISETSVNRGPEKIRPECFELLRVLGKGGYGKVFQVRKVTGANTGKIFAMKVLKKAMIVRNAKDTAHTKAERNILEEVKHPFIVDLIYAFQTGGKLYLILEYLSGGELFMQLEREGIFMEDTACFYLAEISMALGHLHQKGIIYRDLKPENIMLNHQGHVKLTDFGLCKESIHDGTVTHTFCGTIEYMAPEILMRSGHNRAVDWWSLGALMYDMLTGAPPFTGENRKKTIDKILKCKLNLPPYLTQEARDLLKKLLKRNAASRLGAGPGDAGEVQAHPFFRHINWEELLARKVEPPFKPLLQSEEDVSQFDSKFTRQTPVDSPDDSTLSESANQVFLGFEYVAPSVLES

Consider `COc1c(F)cc([C@@H](CN2CCC2)Nc2ncnc3c(C(N)=O)cccc23)cc1F` [Example 38, 4-[(S)-2-Azetidin-1-yl-1-(3,5-difluoro-4-methoxyphenyl)-ethylamino]-quinazoline-8-carboxylic acid amide], for which the half-inhibitory concentration (IC50) in the assay on pS6 MDA-MB-468 worked out at 113 nM; against Akt1, 140 nM; at P70S6K (T412E mutant), 1.8 nM; on Aurora B, 280 nM.

For the compound `N#Cc1cc([C@@H](CN2CCC2)Nc2ncnc3c(C(N)=O)cccc23)ccc1F` [Example 39, 4-[(S)-2-Azetidin-1-yl-1-(3-cyano-4-fluorophenyl)-ethylamino]-quinazoline-8-carboxylic acid amide], the IC50 came to 246 nM with pS6 MDA-MB-468, 83 nM against Akt1, 3.3 nM on P70S6K (T412E mutant) and 650 nM at Aurora B.

`Cc1cc([C@@H](CN2CCC2)Nc2ncnc3c(C(N)=O)cccc23)ccc1F` [Example 42, 4-[(S)-2-Azetidin-1-yl-1-(4-fluoro-3-methyl-phenyl)-ethylamino]-quinazoline-8-carboxylic acid amide]: the IC50 came to 32 nM in the assay on pS6 MDA-MB-468, 23 nM against Akt1, 1.6 nM at P70S6K (T412E mutant) and 120 nM against Aurora B.

Turning to `COc1cc([C@@H](CN2CCC2)Nc2ncnc3c(C(N)=O)cccc23)ccc1F` [Example 43, 4-[(S)-2-Azetidin-1-yl-1-(4-fluoro-3-methoxy-phenyl)-ethylamino]-quinazoline-8-carboxylic acid amide], the 50% inhibitory concentration (IC50) in the assay on pS6 MDA-MB-468 amounted to 484 nM; against Akt1, 21 nM; at P70S6K (T412E mutant), 4 nM; against Aurora B, 69 nM.

Turning to `NC(=O)c1cccc2c(N[C@H](CN3CCC3)c3ccc(F)c(C(F)F)c3)ncnc12` [Example 44, 4-[(S)-2-Azetidin-1-yl-1-(3-difluoromethyl-4-fluoro-phenyl)-ethylamino]-quinazoline-8-carboxylic acid amide], the IC50 is 41 nM in the assay on pS6 MDA-MB-468, 7.3 nM on Akt1, 1.7 nM on P70S6K (T412E mutant) and 75 nM against Aurora B.

Regarding `NC(=O)c1cc(F)cc2c(N[C@H](CN3CCC3)c3ccc(F)c(C(F)(F)F)c3)ncnc12` [Example 45, 4-[(S)-2-Azetidin-1-yl-1-(4-fluoro-3-trifluoromethyl-phenyl)-ethylamino]-6-fluoro-quinazoline-8-carboxylic acid amide], the IC50 in the assay with pS6 MDA-MB-468 came to 33 nM; against Akt1 it was 5.9 nM; on P70S6K (T412E mutant), 1.5 nM; on Aurora B, 290 nM.

Regarding `CC1CN(C[C@@H](Nc2ncnc3c(C(N)=O)cccc23)c2ccc(F)c(C(F)(F)F)c2)C1` [Example 46, 4-[(S)-1-(4-Fluoro-3-trifluoromethyl-phenyl)-2-(3-methyl-azetidin-1-yl)-ethylamino]-quinazoline-8-carboxylic acid amide], the IC50 with pS6 MDA-MB-468 worked out at 427 nM; at Akt1, 7.5 nM; at P70S6K (T412E mutant) it was 4.9 nM; against Aurora B, 390 nM.

For the compound `COc1cc(C(N)=O)c2ncnc(N[C@H](CN3CCC3)c3ccc(F)c(C(F)(F)F)c3)c2c1` [Example 47, 4-[(S)-2-Azetidin-1-yl-1-(4-fluoro-3-trifluoromethyl-phenyl)-ethylamino]-6-methoxy-quinazoline-8-carboxylic acid amide], the IC50 with pS6 MDA-MB-468 is 27 nM; on Akt1, 1.5 nM; at P70S6K (T412E mutant) it was 2.2 nM; at Aurora B, 200 nM.

Regarding `CC1CCN1C[C@@H](Nc1ncnc2c(C(N)=O)cccc12)c1ccc(F)c(C(F)(F)F)c1` (stereo partly drawn) [Example 48, 4-[(S)-1-(4-Fluoro-3-trifluoromethyl-phenyl)-2-(2-methyl-azetidin-1-yl)-ethylamino]-quinazoline-8-carboxylic acid amide], the concentration for half-maximal inhibition (IC50) stood at 391 nM in the assay with pS6 MDA-MB-468, 11 nM against Akt1, 3 nM on P70S6K (T412E mutant) and 120 nM on Aurora B.

Regarding `NC(=O)c1cccc2c(N[C@H](CN3CC(F)C3)c3ccc(F)c(C(F)(F)F)c3)ncnc12` [Example 49, 4-[(S)-2-(3-Fluoro-azetidin-1-yl)-1-(4-fluoro-3-trifluoromethyl-phenyl)-ethylamino]-quinazoline-8-carboxylic acid amide], the IC50 is 116 nM in the assay on pS6 MDA-MB-468, 16 nM at Akt1, 5 nM at P70S6K (T412E mutant) and 540 nM on Aurora B.
